The experiment deals with M. tuberculosis H37Rv growth inhibition with meropenem. Put plainly: dose response, H37Rv, with and without meropenem (AID 434987).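 Also: growth over 7 days at 37 °C before Alamar Blue read on day 9.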
[1] abbreviates: M. tuberculosis H37Rv growth inhibition, measured here: IC50 without meropenem.
Setting [2] is: M. tuberculosis H37Rv growth inhibition, measured here: IC90 without meropenem.
Where [3] appears, read: measured here: IC90 with meropenem.

Calls of active or inactive are those of the source. No rule for the calls is given here.

A word on the IC50: it is the concentration at which inhibition is half-maximal. For orientation: IC90 means the point of the concentration-response curve where the effect stands at 90%.

`Cc1cc(C2C(=O)c3ccccc3C2=O)c(C)c(C)c1C`: the IC50 is 3.79 µM. Under setting [1], this compound gave an IC50 of 34 µM. The same compound had an IC90 under setting [2] of over 100 µM. The same compound showed an IC90 under setting [3] of 16.4 µM.

As for `CSc1nsc(SC)c1NC(=O)OCc1ccccc1`, the IC50 was 32.3 µM. The IC50 under setting [1] is over 100 µM. The IC90 under setting [2] is over 100 µM. In addition, the IC90 under setting [3] was over 100 µM.

With `CC1(C)CN=C(Nc2nc3ccccc3s2)S1`, the IC50 was 29 µM. Under setting [1], this compound returned an IC50 of over 100 µM. Also, the IC90 under setting [2] was over 100 µM. Further, the IC90 under setting [3] is over 50 µM.

Consider `S=C(NNc1ccc2ccccc2c1)NC1CCCCC1`, for which the IC50 was 8.86 µM (inactive). Also, the IC50 under setting [1] turned out to be 20.4 µM. Besides, the IC90 under setting [2] is 46.7 µM. Further, under setting [3], the IC90 was found to be 41.3 µM.

Regarding `O=C(COn1nnc2ccc(Cl)cc21)NC12CC3CC(CC(C3)C1)C2`, the IC50 was > 100 µM (inactive). Also, the IC50 under setting [1] was over 100 µM. Also, the IC90 under setting [2] was over 100 µM. The compound also displayed an IC90 under setting [3] of over 100 µM.

As to `COc1ccc(C(=O)/C=C/c2ccc(O)cc2)c(O)c1CC=C(C)C`, the IC50 is 54.3 µM (inactive). The IC50 under setting [1] came out at 64.8 µM. Also, the IC90 under setting [2] was 98.4 µM. The IC90 under setting [3] was 75.1 µM.

Take `Cc1cc(=O)[nH]c(N/N=C/c2c(F)c(F)c(F)c(F)c2F)n1`: the IC50 is 64.6 µM (inactive). The compound further displayed an IC50 under setting [1] of 92.1 µM. Under setting [2], the 90% effect concentration (IC90) was over 100 µM. Besides, the IC90 under setting [3] was determined as 82.3 µM.

In the case of `O=C1S/C(=C\C=C\c2ccco2)C(=O)N1c1ccccc1`, the 50% inhibitory concentration (IC50) is 14.7 µM. The compound further displayed an IC50 under setting [1] of 43.5 µM. The IC90 under setting [2] was over 100 µM. The compound further gave an IC90 under setting [3] of 77.6 µM.

`COc1ccc2nc(SCC(=O)N3CCCCCC3)c(C#N)cc2c1`: the IC50 was > 50 µM (inactive). This compound had an IC50 under setting [1] of over 100 µM. The 90% effect concentration (IC90) under setting [2] is over 100 µM. Besides, under setting [3], the concentration for an effect of 90% (IC90) was over 50 µM.

As for `CCCCN(C)Cc1cc(=O)oc2cc3c(cc12)CCCC3`, the IC50 was 64.3 µM (inactive). Under setting [1], this compound yielded an IC50 of 80.1 µM. Further, the IC90 under setting [2] is over 100 µM. For the same compound, the IC90 under setting [3] was found to be 82.2 µM.

As for `Cc1ccc(C)c(N2CCN(CC3CCCCC3)CC2)c1`, the IC50 is 37.9 µM. This compound also yielded an IC50 under setting [1] of 95.9 µM. In addition, under setting [2], the concentration for an effect of 90% (IC90) is over 100 µM. Moreover, under setting [3], the IC90 was determined as 52.4 µM.

As for `COc1ccc(-c2c(C(F)(F)F)oc3cc(OCC(=O)Nc4ccccc4C(F)(F)F)ccc3c2=O)cc1OC`, the IC50 is > 100 µM (inactive). Under setting [1], this compound returned an IC50 of over 100 µM. Besides, under setting [2], the IC90 is over 100 µM. The compound further displayed an IC90 under setting [3] of over 100 µM.

Regarding `OC1C(O)C(O)C(O)C(O)C1O` (configuration not stated), the IC50 was > 100 µM (inactive). Moreover, the half-maximal inhibitory concentration (IC50) under setting [1] was over 100 µM. This compound registered an IC90 under setting [2] of over 100 µM. This compound also gave an IC90 under setting [3] of over 100 µM.

Consider `CCOc1ccc(/C=N/NC(=O)c2ccccc2O)cc1CN1CC2CC(C1)c1cccc(=O)n1C2` (configuration not stated), for which the IC50 is 79.8 µM (inactive). Besides, under setting [1], the IC50 came to 94.9 µM. Besides, the concentration for an effect of 90% (IC90) under setting [2] is over 100 µM. This compound gave an IC90 under setting [3] of over 100 µM.

As to `Cc1ccc(S(=O)(=O)NCCCCCC(=O)Nc2nccs2)cc1`, the IC50 is > 100 µM (inactive). Further, the IC50 under setting [1] is over 100 µM. Under setting [2], this compound yielded an IC90 of over 100 µM. This compound registered an IC90 under setting [3] of over 100 µM.

As for `O=C1COc2ccc(C(=O)CCl)cc2N1`, the IC50 was 25.7 µM (inactive). The IC50 under setting [1] worked out at 24.7 µM. Under setting [2], this compound returned an IC90 of 27 µM. Moreover, the IC90 under setting [3] was found to be 44.4 µM.

Consider `CNC(=O)COC(=O)c1ccccc1NC(=O)c1ccco1`, for which the IC50 is 35.1 µM (inactive). Also, the half-maximal inhibitory concentration (IC50) under setting [1] was 47.1 µM. Under setting [2], this compound gave an IC90 of over 100 µM. This compound registered an IC90 under setting [3] of over 100 µM.

With `Nc1ncnc2c1c(-c1ccc(Oc3ccccc3)cc1)cn2C1CCCC1`, the IC50 was 17.1 µM (inactive). This compound also returned an IC50 under setting [1] of 26.4 µM. Under setting [2], this compound had an IC90 of 42.5 µM. This compound came in with an IC90 under setting [3] of 60.3 µM.

For the compound `CSc1nnc(C)c(/C=C/Nc2ccc(Cl)cc2)n1`, the IC50 is 94 µM (inactive). Further, under setting [1], the IC50 worked out at 94.5 µM. For the same compound, the IC90 under setting [2] was over 100 µM. For the same compound, under setting [3], the IC90 was over 100 µM.

With `O=C(CN1C(=O)c2cccc([N+](=O)[O-])c2C1=O)N1CCN(c2ccc(F)cc2)CC1`, the IC50 is 58.6 µM (inactive). Moreover, the half-inhibitory concentration (IC50) under setting [1] amounted to 91.4 µM. Under setting [2], the 90% effect concentration (IC90) was over 100 µM. This compound returned an IC90 under setting [3] of 74.5 µM.

As for `CCOc1ccc(-c2nc(-c3ccccc3C)no2)cc1`, the IC50 was > 100 µM (inactive). Also, under setting [1], the IC50 was over 100 µM. Under setting [2], this compound displayed an IC90 of over 100 µM. Also, under setting [3], the IC90 was over 100 µM.

On to `CCC(C)Nc1c2c(nc3c(-c4ccccc4)c(C)nn13)CCC2` (configuration not stated), for which the IC50 was > 100 µM (inactive). For the same compound, the IC50 under setting [1] is over 100 µM. The IC90 under setting [2] was over 100 µM. The compound also had an IC90 under setting [3] of over 100 µM.

Consider `OCCOCCn1c(C2CCCN2c2nc(-c3ccc(F)cc3)cs2)nc2cc(Cl)c(Cl)cc21` (configuration not stated), for which the IC50 is > 100 µM (inactive). Under setting [1], this compound came in with an IC50 of over 100 µM. This compound came in with an IC90 under setting [2] of over 100 µM. This compound gave an IC90 under setting [3] of over 100 µM.

As for `O=C(Nc1nnc(-c2ccco2)o1)c1ccc(S(=O)(=O)N2CCOCC2)cc1`, the IC50 was 24.5 µM. Moreover, the IC50 under setting [1] was 63.5 µM. Under setting [2], this compound came in with an IC90 of over 100 µM. Also, under setting [3], the IC90 was over 100 µM.

On to `O=C(O)CCC/C=C\C[C@@H]1[C@@H](/C=C/[C@@H](O)COc2cccc(Cl)c2)[C@H](O)C[C@@H]1O`, for which the IC50 is > 100 µM (inactive). The IC50 under setting [1] is over 100 µM. Under setting [2], the IC90 was over 100 µM. Under setting [3], the IC90 was over 100 µM.

On to `Fc1ccc(NC(=S)NCc2cccs2)cc1`, for which the IC50 is > 100 µM (inactive). The compound also displayed an IC50 under setting [1] of over 100 µM. For the same compound, under setting [2], the IC90 was over 100 µM. This compound displayed an IC90 under setting [3] of over 100 µM.

Consider `CCCCC(=O)Nc1ccc(NC(=S)NC(=O)CCCCl)cc1OC`, for which the IC50 was > 50 µM (inactive). Moreover, the IC50 under setting [1] was 94.9 µM. The compound also yielded an IC90 under setting [2] of over 100 µM. The same compound came in with an IC90 under setting [3] of over 50 µM.

On to `NNC(=S)Nc1ccc(C(F)(F)F)cc1Cl`, for which the IC50 was > 100 µM (inactive). Also, the IC50 under setting [1] is over 100 µM. Further, under setting [2], the IC90 was over 100 µM. For the same compound, the IC90 under setting [3] was over 100 µM.

Consider `O=C(COC(=O)c1ccc([N+](=O)[O-])s1)NCc1ccc(F)cc1`, for which the IC50 was 37.9 µM (inactive). Also, the concentration for half-maximal inhibition (IC50) under setting [1] worked out at 56.6 µM. The 90% effect concentration (IC90) under setting [2] was over 100 µM. In addition, the IC90 under setting [3] was over 100 µM.

`Brc1ccc(CNc2ccc3ncccc3c2)cc1`: the IC50 is > 100 µM (inactive). The half-inhibitory concentration (IC50) under setting [1] was over 100 µM. Moreover, the IC90 under setting [2] is over 100 µM. The 90% effect concentration (IC90) under setting [3] was over 100 µM.

Take `CCOC(=O)c1ccc(N2CN(C3CCCCC3)CNC2=S)cc1`: the IC50 is 35.4 µM. This compound came in with an IC50 under setting [1] of over 100 µM. The compound also yielded an IC90 under setting [2] of over 100 µM. Moreover, the IC90 under setting [3] was over 100 µM.

Turning to `Cc1ccc(C(=O)NCC2(c3ccccc3)CCCC2)cc1`, the IC50 is 75.3 µM (inactive). In addition, the IC50 under setting [1] was over 100 µM. Also, the IC90 under setting [2] was over 100 µM. For the same compound, the IC90 under setting [3] was over 100 µM.

As for `CC(C)c1ccc(S(=O)(=O)N2CCN(C(C)C(=O)NC3CCCC3)CC2)cc1` (configuration not stated), the IC50 was > 100 µM (inactive). Under setting [1], this compound gave an IC50 of over 100 µM. The concentration for an effect of 90% (IC90) under setting [2] was over 100 µM. This compound showed an IC90 under setting [3] of over 100 µM.

For the origin of these results see PubChem BioAssay AID434987 (Southern Research Specialized Biocontainment Screening …, 2010).
